{"source": "patent US9295732B2", "about": "“Conjugated TLR7 and/or TLR8 and TLR2 polycationic agonists” (CAYLA, priority 2013, dated 2016)", "tested_on": "B16-F1 tumor", "assay": "In vivo mouse B16-F1 tumor model, molecule alone", "set-up": "species or system C57BL/6 mice", "settings": "by day 23, intra-tumoral injections, FIG. 8A", "method": "Measurements were performed under gas anesthesia.\nThe second group received intra-tumoral injections of CL413 molecule alone (a TLR7-TLR2 Pam2CSK4-based molecule). Third and forth groups received intra-tumoral injections of the TLR2 ligand, Pam2CSK4 alone, and the TLR7 ligand alone, respectively. A fifth group received a combined treatment of Pam2CSK4 and TLR7 ligand, in solution at the equivalent molecule quantity of the respective TLR2 and TLR7 moieties in CL413 (in 100 μl Bionolyte G5® with Pluronic® F-68 2%) for a total of 3 injections."}
{"substance": "(6S,9S,12S,15S,18S,21R)-6,25-diamino-21-(4-((6-amino-2-(butylamino)-8-hydroxy-9H-purin-9-yl)methyl)phenylcarbamoyl)-12,15,18-tris(4-aminobutyl)-9-(hydroxyl methyl)-7,10,13,16,19-pentaoxo-4-thia-8,11,14,17,20-pentaazapentacosane-1,2-diyl dipalmitate [CL413]", "values": [{"measurement": "tumor volume", "result": "no increase in tumor volume"}]}
